The values that follow come from US11168047B2, “Cocrystal of 2-[(1R,6R)-6-isopropenyl-3-methylcyclohex-2-en-1-yl]-5-pentylbenzene-l,3-diol” (ENANTIA, S.L., priority 2017, dated 2021).

The conditions of data set [1]: open vial, 40° C. and 75±5% relative humidity. As for the experimental part: The aim of the study is to evaluate the stability of cocrystal Form I of the present invention.
Cocrystal Form I of the present invention obtained by the process disclosed in section 1.1.B.1.
Cocrystal Form I (55 mg) is stored in an open vial and exposed to accelerated stability conditions (40° C. and 75±5% relative humidity) according to ICH guidelines (Guidance for Industry Q1A(R2) Stability Testing of New Drug Substances and Products—available on the website http://www.ich.org/products/guidelines/quality/quality-single/article/stability-testing-of-new-drug-substances-and-products.html on Aug. 4, 2017).

For data set [2] the following is noted: in humans; cited from earlier work.

Each structure is given as a SMILES string.

For the compound `C=C(C)[C@@H]1CCC(C)=C[C@H]1c1c(O)cc(CCCCC)cc1O.O=C(O)[C@@H]1CCCN1` [cocrystal Form I, cocrystal of 2-[(1R,6R)-6-isopropenyl-3-methylcyclohex-2-en-1-yl]-5-pentylbenzene-1,3-diol with L-proline], in data set [1], the “stability (solid form)” value is “remained stable for at least three weeks”.

In the case of `C=C(C)[C@@H]1CCC(C)=C[C@H]1c1c(O)cc(CCCCC)cc1O` [CBD, 2-[(1R,6R)-6-isopropenyl-3-methylcyclohex-2-en-1-yl]-5-pentylbenzene-1,3-diol], the oral bioavailability in data set [2] is listed as 6-33%.
